Test: xn = mol fraction of the nth substance listed
Settings: 101 kPa, Liquid; for speed of sound: Sing-around technique in a fixed-path interferometer

Cc1cccc(C)c1 [1,3-dimethylbenzene] + COC(C)(C)C
Settings	mass density, 288.15 K [kg/m3]	mass density, 290.65 K [kg/m3]	mass density, 293.15 K [kg/m3]	mass density, 295.65 K [kg/m3]	speed of sound, 288.15 K [m/s]	speed of sound, 290.65 K [m/s]	speed of sound, 293.15 K [m/s]	speed of sound, 295.65 K [m/s]
x2 = 0	868.459	866.318	864.177	862.035	1362.7	1352.1	1341.7	1331.3
x2 = 0.047	863.235	861.081	858.922	856.763	1350.6	1340.1	1329.7	1319
x2 = 0.115	855.522	853.297	851.118	848.935	1332.6	1322.5	1312	1301.5
x2 = 0.212	844.315	842.102	839.887	837.67	1306.8	1296.1	1285.5	1274.9
x2 = 0.304	833.627	831.375	829.126	826.872	1282.4	1271.5	1260.8	1250.1
x2 = 0.399	822.223	819.939	817.65	815.358	1256.5	1245.6	1234.7	1223.9
x2 = 0.5	809.928	807.6	805.27	–	1228.3	1217.4	1206.5	1195.6
x2 = 0.601	797.423	795.051	792.671	–	1200.9	1189.7	1178.5	1167.3
x2 = 0.651	791.063	788.663	786.26	–	1185.3	1173.8	1162.6	1151.5
x2 = 0.794	772.47	769.999	767.519	–	1143.4	1132	1120.7	1109.4
x2 = 0.898	758.81	756.279	753.738	–	1113.2	1101.5	1090	1078.5
x2 = 0.954	751.317	748.754	746.179	–	1097.5	1085.7	1074.1	1062.5

Reference: the NIST ThermoML archive (doi:10.1016/j.fluid.2008.03.004)
